Measurements as given in patent US11229592B2, “Method for hair volume reduction” (Conopco, Inc., priority 2017, dated 2022).

Experiments:
[1] = Long lasting and durable volume reduction of treated hair switches after subsequent washing; conditions: switches from Example 1 subsequently washed, images captured; compared to control
Protocol: (§1) Dark brown European wavy hair switches of length 25 cm and weight 2 gms, were treated as follows:
(§2) At the end of the soaking period, the switches were left to dry at 20° C. and 50% RH. When dried, the switches were straightened with 5 passes of FHI irons (FHI Brands, 29003 Avenue Sherman Valencia, Calif. 91355 USA). The switches were then placed in a humidity chamber ˜30 C/80% RH for 1 hour and images were captured and analyzed.
The switches from the above example were subsequently washed and the images were captured. […] The corresponding benefits for glycine was only −10%.

[2] = Shape and frizz control (volume) of straightened hair switches after high humidity, image analysis; conditions: After 1 hour at high humidity (30 C./80% RH), switches soaked 30 minutes in 1% aqueous solution, dried, compared to water control
Protocol: as §1
Control: After initial washing, soaked for 30 minutes in water
Comparative Example A: After initial washing, soaked for 30 minutes in aqueous solution of 1% glycine
Example 1: soaked for 30 minutes in aqueous solution of 1% N-formyl glycine
as §2

Compound	benefit over control (volume reduction) [1]	% shape and frizz control benefit against control [2]
NCC(=O)O [Comparative Example A, glycine]	−10%	−6%
O=CNCC(=O)O [Example 1, N-formyl glycine]	32%	30%
